Laboratory results reported in patent US9376418B2, “Substituted pyridine spleen tyrosine kinase (SYK) inhibitors” (Merck Sharp & Dohme Corp., priority 2012, dated 2016).
pIC50: −log10 of the molar value.

target: T1, recombinant human GST-SYK (Homo sapiens, UniProt P43405); assay: Homogeneous Time-Resolved Fluorescence (HTRF) assay for the recombinant human Syk enzyme; assay type: biochemical; conditions: HTRF assay, recombinant human GST-SYK; IC50 given as class symbols; read-out: rhSYK Activity
T1 construct: purchased Carna Biosciences 08-176
Method in brief: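 Enzyme […], pH 7.5 Tris/tween/DTT buffer; 10 min preincubation with compound, RT. Start: 250 nM biotin-peptide, 25 μM ATP, 5 mM Mg; 45′ RT. Stop/detect: 40 mM EDTA, Eu-anti-pTyr, SA-APC; read 30 min later.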

Row | pIC50 | SMILES
1 | > 7.00 | Cc1cc(Nc2nccc(C(F)(F)F)n2)cc(-c2cncc(C(=O)NCC(O)CO)c2)c1 (stereo not drawn) [Example 15.90, N-(2,3-dihydroxypropyl)-5-(3-methyl-5-{[4-(trifluoromethyl)pyrimidin-2-yl]amino}phenyl)pyridine-3-carboxamide]
2 | > 7.00 | Cc1cc(Nc2nccc(C(F)(F)F)n2)cc(-c2ccc(C(=O)NS(C)(=O)=O)nc2)c1 [Example 16.1, N-(methylsulfonyl)-5-(3-methyl-5-{[4-(trifluoromethyl)pyrimidin-2-yl]amino}phenyl)pyridine-2-carboxamide]
3 | > 7.00 | Cc1cc(Nc2nccc(C(F)(F)F)n2)cc(-c2ccc(C(=O)NS(N)(=O)=O)nc2)c1 [Example 16.2]
4 | > 7.00 | Cc1cc(Nc2nccc(C(F)(F)F)n2)cc(-c2ccc(C(=O)N3CCOC3=O)nc2)c1 [Example 16.3, 3-{[5-(3-Methyl-5-{[4-(trifluoromethyl)pyrimidin-2-yl]amino}phenyl)pyridin-2-yl]carbonyl}-1,3-oxazolidin-2-one]
5 | > 7.00 | Cc1cc(Nc2nccc(C(F)(F)F)n2)cc(-c2ccc(C(=O)N3CCNC(=O)C3)nc2)c1 [Example 16.4, 4-{[5-(3-Methyl-5-{[4-(trifluoromethyl)pyrimidin-2-yl]amino}phenyl)pyridin-2-yl]carbonyl}piperazin-2-one]
6 | > 7.00 | Cc1cc(Nc2nccc(C(F)(F)F)n2)cc(-c2ccc(C(=O)NCCO)nc2)c1 [Example 16.5, N-(2-hydroxyethyl)-5-(3-methyl-5-{[4-(trifluoromethyl)pyrimidin-2-yl]amino}phenyl)pyridine-2-carboxamide]
7 | > 7.00 | Cc1cc(Nc2nccc(C(F)(F)F)n2)cc(-c2ccc(C(=O)N(C)CCO)nc2)c1 [Example 16.6, N-(2-hydroxyethyl)-N-methyl-5-(3-methyl-5-{[4-(trifluoromethyl)pyrimidin-2-yl]amino}phenyl)pyridine-2-carboxamide]
8 | > 7.00 | Cc1cc(Nc2nccc(C(F)(F)F)n2)cc(-c2ccc(C(=O)NC(C)CO)nc2)c1 (stereo not drawn) [Example 16.7, N-(2-hydroxy-1-methylethyl)-5-(3-methyl-5-{[4-(trifluoromethyl)pyrimidin-2-yl]amino}phenyl)pyridine-2-carboxamide]
9 | 6.00 to 7.00 | Cc1cc(Nc2nccc(C(F)(F)F)n2)cc(-c2ccc(C(=O)NC3(CO)CC3)nc2)c1 [Example 16.8, N-[1-(hydroxymethyl)cyclopropyl]-5-(3-methyl-5-{[4-(trifluoromethyl)pyrimidin-2-yl]amino}phenyl)pyridine-2-carboxamide]
10 | 6.00 to 7.00 | CCC(CO)NC(=O)c1ccc(-c2cc(C)cc(Nc3nccc(C(F)(F)F)n3)c2)cn1 (stereo not drawn) [Example 16.9, N-[1-(hydroxymethyl)propyl]-5-(3-methyl-5-{[4-(trifluoromethyl)pyrimidin-2-yl]amino}phenyl)pyridine-2-carboxamide]
11 | 6.00 to 7.00 | Cc1cc(Nc2nccc(C(F)(F)F)n2)cc(-c2ccc(C(=O)NCC(C)(C)O)nc2)c1 [Example 16.10, N-(2-hydroxy-2-methylpropyl)-5-(3-methyl-5-{[4-(trifluoromethyl)pyrimidin-2-yl]amino}phenyl)pyridine-2-carboxamide]
12 | 6.00 to 7.00 | Cc1cc(Nc2nccc(C(F)(F)F)n2)cc(-c2ccc(C(=O)NC(C)(C)CO)nc2)c1 [Example 16.11, N-(2-hydroxy-1,1-dimethylethyl)-5-(3-methyl-5-{[4-(trifluoromethyl)pyrimidin-2-yl]amino}phenyl)pyridine-2-carboxamide]
13 | 6.00 to 7.00 | Cc1cc(Nc2nccc(C(F)(F)F)n2)cc(-c2ccc(C(=O)N3CCN(C)CC3)nc2)c1 [Example 16.12, N-(3-methyl-5-{6-[(4-methylpiperazin-1-yl)carbonyl]pyridin-3-yl}phenyl)-4-(trifluoromethyl)pyrimidin-2-amine]
14 | > 7.00 | Cc1cc(Nc2nccc(C(F)(F)F)n2)cc(-c2ccc(C(=O)NC(C)(CO)CO)nc2)c1 [Example 16.13, N-[2-hydroxy-1-(hydroxymethyl)-1-methylethyl]-5-(3-methyl-5-{[4-(trifluoromethyl)pyrimidin-2-yl]amino}phenyl)pyridine-2-carboxamide]
15 | 6.00 to 7.00 | Cc1cc(Nc2nccc(C(F)(F)F)n2)cc(-c2ccc(C(=O)NCc3cnn(C)c3)nc2)c1 [Example 16.14, N-[(1-methyl-1H-pyrazol-4-yl)methyl]-5-(3-methyl-5-{[4-(trifluoromethyl)pyrimidin-2-yl]amino}phenyl)pyridine-2-carboxamide]
16 | 6.00 to 7.00 | Cc1cc(Nc2nccc(C(F)(F)F)n2)cc(-c2ccc(C(=O)NCc3cncn3C)nc2)c1 [Example 16.15, N-[(1-methyl-1H-imidazol-5-yl)methyl]-5-(3-methyl-5-{[4-(trifluoromethyl)pyrimidin-2-yl]amino}phenyl)pyridine-2-carboxamide]
17 | 6.00 to 7.00 | Cc1cc(Nc2nccc(C(F)(F)F)n2)cc(-c2ccc(C(=O)NCc3cn(C)cn3)nc2)c1 [Example 16.17, N-[(1-methyl-1H-imidazol-4-yl)methyl]-5-(3-methyl-5-{[4-(trifluoromethyl)pyrimidin-2-yl]amino}phenyl)pyridine-2-carboxamide]

Row | pIC50 | SMILES
18 | > 7.00 | Cc1cc(Nc2nccc(C(F)(F)F)n2)cc(-c2ccc(C(=O)N3CC(=O)NC(=O)C3)nc2)c1 [Example 16.18, 4-{[5-(3-methyl-5-{[4-(trifluoromethyl)pyrimidin-2-yl]amino}phenyl)pyridin-2-yl]carbonyl}piperazine-2,6-dione]
19 | > 7.00 | Cc1cc(Nc2nccc(C(F)(F)F)n2)cc(-c2ccc(C(=O)N3CCNC(=O)CC3)nc2)c1 [Example 16.19, 1-{[5-(3-methyl-5-{[4-(trifluoromethyl)pyrimidin-2-yl]amino}phenyl)pyridin-2-yl]carbonyl}-1,4-diazepan-5-one]
20 | > 7.00 | Cc1cc(Nc2nccc(C(F)(F)F)n2)cc(-c2ccc(C(=O)N3CCN(C)C(=O)C3)nc2)c1 [Example 16.20, 1-methyl-4-{[5-(3-methyl-5-{[4-(trifluoromethyl)pyrimidin-2-yl]amino}phenyl)pyridin-2-yl]carbonyl}piperazin-2-one]
21 | 6.00 to 7.00 | Cc1cc(Nc2nccc(C(F)(F)F)n2)cc(-c2ccc(C(=O)NC3(CO)CCCC3)nc2)c1 [Example 16.21, N-[1-(hydroxymethyl)cyclopentyl]-5-(3-methyl-5-{[4-(trifluoromethyl)pyrimidin-2-yl]amino}phenyl)pyridin-2-carboxamide]
22 | 6.00 to 7.00 | Cc1cc(Nc2nccc(C(F)(F)F)n2)cc(-c2ccc(C(=O)NC(C)c3ccccn3)nc2)c1 (stereo not drawn) [Example 16.22, 5-(3-methyl-5-{[4-(trifluoromethyl)pyrimidin-2-yl]amino}phenyl)-N-(1-pyridin-2-ylethyl)pyridine-2-carboxamide]
23 | 6.00 to 7.00 | Cc1cc(Nc2nccc(C(F)(F)F)n2)cc(-c2ccc(C(=O)N3CCN(C)C(=O)C3C)nc2)c1 (stereo not drawn) [Example 16.23, 1,3-dimethyl-4-{[5-(3-methyl-5-{[4-(trifluoromethyl)pyrimidin-2-yl]amino}phenyl)pyridin-2-yl]carbonyl}piperazin-2-one]
24 | > 7.00 | CC(=O)N1CCN(C(=O)c2ccc(-c3cc(C)cc(Nc4nccc(C(F)(F)F)n4)c3)cn2)CC1 [Example 16.24, N-(3-{6-[(4-acetylpiperazin-1-yl)carbonyl]pyridin-3-yl}-5-methylphenyl)-4-(trifluoromethyl)pyrimidin-2-amine]
25 | 6.00 to 7.00 | Cc1cc(Nc2nccc(C(F)(F)F)n2)cc(-c2ccc(C(=O)N(C)CCC3OCCO3)nc2)c1 [Example 16.25, N-[2-(1,3-dioxolan-2-yl)ethyl]-N-methyl-5-(3-methyl-5-{[4-(trifluoromethyl)pyimidin-2-yl]amino}phenyl)pyridine-2-carboxamide]
26 | > 7.00 | Cc1cc(Nc2nccc(C(F)(F)F)n2)cc(-c2ccc(C(=O)NC3CCNC3=O)nc2)c1 (stereo not drawn) [Example 16.26, 5-(3-methyl-5-{[4-(trifluoromethyl)pyrimidin-2-yl]amino}phenyl)-N-(2-oxopyrrolidin-3-yl)pyridine-2-carboxamide]
27 | 6.00 to 7.00 | Cc1cc(Nc2nccc(C(F)(F)F)n2)cc(-c2ccc(C(=O)NCc3ncnn3C)nc2)c1 [Example 16.27, N-[(1-methyl-1H-1,2,4-triazol-5-yl)methyl]-5-(3-methyl-5-{[4-(trifluoromethyl)pyrimidin-2-yl]amino}phenyl)pyridine-2-carboxamide]
28 | 6.00 to 7.00 | C=C(F)CNC(=O)c1ccc(-c2cc(C)cc(Nc3nccc(C(F)(F)F)n3)c2)cn1 [Example 16.28, N-(2-fluoroprop-2-en-1-yl)-5-(3-methyl-5-{[4-(trifluoromethyl)pyrimidin-2-yl]amino}phenyl)pyridine-2-carboxamide]
29 | 6.00 to 7.00 | Cc1cc(Nc2nccc(C(F)(F)F)n2)cc(-c2ccc(C(=O)Nc3cncnc3)nc2)c1 [Example 16.29, 5-(3-methyl-5-{[4-(trifluoromethyl)pyrimidin-2-yl]amino}phenyl)-N-pyrimidin-5-ylpyridine-2-carboxamide]
30 | > 7.00 | Cc1cc(Nc2nccc(C(F)(F)F)n2)cc(-c2ccc(C(=O)NCC3CCC(=O)N3)nc2)c1 (stereo not drawn) [Example 16.30, 5-(3-methyl-5-{[4-(trifluoromethyl)pyrimidin-2-yl]amino}phenyl)-N-[(5-oxopyrrolidin-2-yl)methyl]pyridine-2-carboxamide]
31 | 6.00 to 7.00 | Cc1cc(Nc2nccc(C(F)(F)F)n2)cc(-c2ccc(C(=O)NCC3COCCO3)nc2)c1 (stereo not drawn) [Example 16.31]
32 | > 7.00 | Cc1cc(Nc2nccc(C(F)(F)F)n2)cc(-c2ccc(C(=O)N3CCn4ccnc4C3)nc2)c1 [Example 16.32, N-{3-[6-(5,6-dihydroimidazo[1,2-a]pyrazin-7(8H)-ylcarbonyl)pyridin-3-yl]-5-methylphenyl}-4-(trifluoromethyl)pyrimidin-2-amine]
33 | 6.00 to 7.00 | Cc1cc(Nc2nccc(C(F)(F)F)n2)cc(-c2ccc(C(=O)NC3CCOC3)nc2)c1 (stereo not drawn) [Example 16.33, 5-(3-methyl-5-{[4-(trifluoromethyl)pyrimidin-2-yl]amino}phenyl)-N-(tetrahydrofuran-3-yl)pyridine-2-carboxamide]
